# Assay results: patent publication US20220047702A1, “TARGETED MAGNETIC VEHICLES AND METHOD OF USING THE SAME” (HADASIT MEDICAL RESEARCH SERVICES AND DEVELOPMENT LTD., priority 2019, published 2022)
# “Also recorded” adds a separate entry of the source.
# Tests used:
# [1] = test system: CT26 tumors; experiment: Anti-tumor activity of systemically administered 5FU in tumor-xenografted mice; type: in vivo; settings: three consecutive intraperitoneal injections, vs normal saline
# Procedure: Male BALB/c mice (6 weeks of age, Envigo, Israel) were used for all in-vivo experiments. All experiments were performed with approval and in accordance with the guidelines of the Institutional Animal Care and Use Committee at The Hebrew University of Jerusalem. 1.5×10^6 CT26 cells were injected subcutaneously into the right anterior limb of each mouse. Ten days later (day 0) colorectal tumor appeared at the injection site. The mice were randomly allocated to control and experimental groups.
# Following tumor creation systemic administration via intraperitoneal (IP) injection of 5FU (experiment) or normal saline (control) was performed. 5FU injections were carried out on days 3, 4, 5. Tumor progression was evaluated by measuring the tumor volume using a Vernier caliper at days 0,1,3,4,6,8 and 10.
# Statistical analyses of tumor volumes were performed using RM two-way Analysis of Variation (ANOVA) with a confidence interval of 95% using post hoc Dunnet' s analysis of multiple comparisons for the tumor treated with 5FU bounded to 6×IONPs and Sidak's analysis for the tumor treated with free 5FU. Statistical analysis of iron staining quantification in the spleen was performed using the nonparametric Kruskal-Wallis test with a confidence interval of 95% using post hoc Dunn's analysis of multiple comparisons.
# [2] = Bound avastin concentration on IO/HSA NPs (ELISA); type: physicochemical; settings: via ELISA method
# Procedure: 200 μl of NHS-PEG-MA [MA=melimide] (MW=3000 g/mol) were added to sterile IO/HSA nanoparticles dispersion in PBS (5 ml, 10 mg/mL). The reaction mixture was shaken at room temperature for 30 min. The derivatized PEGMA-conjugated IO/HSA NPs PBS dispersion was washed and eluted with bicarbonate buffer in a magnetic column, followed by immediate addition under sterile conditions of 40 μl of AV aqueous solution (25 mg/ml). The reaction mixture was shaken at 4° C. for 1.5 h. then, 10 weight % glycine solution (10 mg) were added to the AV-conjugated IO/HSA NPs bicarbonate aqueous dispersion to block residual sites. The AV-IO/HSA nanoparticles were then washed and eluted through a magnetic column with PBS and stored under sterile conditions.
# Avastin was physically conjugated to the IO/HSA nanoparticles by adding 7.5 mg of avastin to 4 mL of the IO/HSA NPs PBS dispersion (10 mg/mL). […]
# The attached and remaining concentrations of physically and covalently conjugated avastin was determined through ELISA assay using a standard protocol. The calculated covalent bound avastin concentration (via ELISA method) was 0.10 mg/1 mg of the nanoparticles. The calculated physical conjugated avastin concentration (via ELISA method) was 0.13 mg/1 mg of the nanoparticles (30% more of the covalent binding process).
# [3] = test system: CT26 tumor (Bev resistant); experiment: Anti-tumor activity of Bev SPIONs in Bev resistant tumors; type: in vivo, mice; settings: 10 mg/kg (FIG. 13), without magnetic field
compound,measurement,setting,value
"O=c1[nH]cc(F)c(=O)[nH]1 [5FU, 5-Fluorouracil]",tumor volume / tumor growth,[1],No significant changes in tumor volumes; also recorded: did not inhibit CT26 tumor growth at all; also recorded: no significant difference
AV-IO/HSA: Avastin covalently bound via NHS-PEG-MA to IO/HSA nanoparticles,calculated bound avastin concentration,[2],0.10 mg/1 mg of the nanoparticles
bevacizumab,tumor growth,[3]; local administration,did not yield inhibition of tumor growth; also recorded: had no effect on tumor growth
same,tumor growth,[3]; systemic administration,did not yield inhibition of tumor growth; also recorded: had no effect on tumor growth
